Source: patent US20240327388A1, “QUINOLINAMINE COMPOUND, PREPARATION METHOD THEREFOR AND APPLICATION THEREOF IN PHARMACEUTICALS” (JIANGSU HENGRUI PHARMACEUTICALS CO., LTD., priority 2021, published 2024)

The compounds below were run on miR-124 (assay: Up-regulation of miR-124 in CD3/CD28 antibody-activated T cells (SYBR green quantitative PCR)). Conditions: T-cell, 72 h; activated human T cells, 1 μM compound, 3 days, relative to DMSO, U6 internal reference.
Assay type: cell-based
Method: The effect of the compound on miR-124 expression levels was detected in CD3/CD28 antibody-activated T cells. After the activated T cells were treated with the compound, the total cellular RNA was extracted, the cDNA obtained from reverse transcription was used as a template, and quantification was performed by an SYBR green fluorescence quantitative PCR method using a specific miR-124 primer.
Isolation of T cells: Purchased human peripheral blood mononuclear cells (PBMCs) were counted, centrifuged, and washed once with a separation buffer (PBS, pH 7.4, containing 0.5% BSA and 2 mM EDTA), and the supernatant was discarded. The components were added in an amount of 40 μL of a buffer and 10 μL of pan T Cell Biotin-Antibody Cocktail per 1×10^7 cells, and the pellet was resuspended. The resulting suspension was mixed and incubated in a refrigerator at 4° C. for 5 min. After the incubation was completed, the components were added in an amount of 30 μL of a buffer and 20 μL of Pan T Cell MicroBeads Cocktail per 1×10^7 cells, and the resulting suspension was mixed and incubated in a refrigerator at 4° C. for 10 min. The separation column (LS column) was rinsed with 3 mL of a cell separation buffer in advance, loaded with the above cell suspension, and then repeatedly washed 3 times with 1 mL of the cell separation buffer. The effluent cell fluid was collected in a 15 mL centrifuge tube, thus giving the enriched T cells. The cells were counted and added at a density of 1×10^6 cells/mL to an RPMI1640 medium (complete medium) containing 10% FBS and 40) U/mL IL-2, and the resulting mixture was kept on ice for later use.
Activation of T cells: The corresponding Dynabead Human T-Activator CD3/CD28 for T Cell Expansion and Activation were added to a 1.5 mL centrifuge tube in an amount of 25 μL of the activated magnetic beads per 1×10^6 cells, which should be shaken on a shaker for about 30 s before aspiration. In the centrifuge tube, at a volume ratio of greater than 1:1, the activated magnetic beads were washed 3 times with a medium, and all the washing liquid was removed after the last washing. A complete medium with a volume equal to the starting volume was added to resuspend the activated magnetic beads. The washed activated magnetic beads were added to the cell resuspension, and the resulting mixture was well mixed. The cells were added to a six-well plate at 3 mL/well and incubated in a cell incubator at 37° C. with 5% CO2 for 2 days.
Compound treatment: A 20 mM compound stock solution was diluted to 200 μM with DMSO, and then diluted 4-fold to 50 μM (50)×) with a complete medium. The resulting mixture was well mixed for later use. 4-fold diluted DMSO (25% DMSO) was added to negative control wells. T cells were activated for two days and pipetted uniformly. The 1.5 mL centrifuge tube was mounted on a magnetic rack, and the activated magnetic beads were removed. The cell suspension was collected, and the cells were counted and then centrifuged at 300×g for 10 min to discard the supernatant. The cells were then resuspended to 1.02×10^6 cells/mL, and 980 μL of the cell suspension and 20 μL of the 50× compound were added to each 24-well plate, with the final concentration of the compound being 1 μM. The cells were placed in a cell incubator at 37° C. with 5% CO2 for another 3 days.
RNA extraction: T cells were collected by centrifugation at 1500 rpm for 3 min, washed once with PBS, and centrifuged again to discard the supernatant. The total cellular RNA was extracted using a microRNA extraction kit according to the package insert. 700 μL of a Trizol cell lysis buffer was added to the cell pellet, and the resulting mixture was pipetted uniformly and left at room temperature for 5 min. 140 μL of chloroform was added, and the resulting mixture was well mixed with shaking and left to stand at room temperature for 3 min. The chloroform-cell lysis buffer mixture was centrifuged at 12000×g and 4° C. for 15 min. […]

Row | SMILES | fold induction at 1 µM
1 | Clc1cccc2ccc(Nc3ccc4c(c3)CCO4)nc12 [Compound 3, 8-Chloro-N-(2,3-dihydrobenzofuran-5-yl)quinolin-2-amine] | 5.2
2 | O=C(O)[C@H]1O[C@@H](N(c2ccc3c(c2)OCO3)c2ccc3cccc(Cl)c3n2)[C@H](O)[C@@H](O)[C@@H]1O [Compound 21, (2S,3S,4S,5R,6R)-6-(Benzo[d][1,3]dioxol-5-yl(8-chloroquinolin-2-yl)amino)-3,4,5-trihydroxytetrahydro-2H-pyran-2-carboxylic acid] | 1.9
3 | Cc1ccc(Cl)c2nc(Nc3ccc4c(c3)OC(F)(F)O4)ccc12 [Compound 23, 8-Chloro-N-(2,2-difluorobenzo[d][1,3]dioxol-5-yl)-5-methylquinolin-2-amine] | 2.3
4 | FC1(F)Oc2ccc(Nc3ccc4ccc(Cl)c(Cl)c4n3)cc2O1 [Compound 17, 7,8-Dichloro-N-(2,2-difluorobenzo[d][1,3]dioxol-5-yl)quinolin-2-amine] | 5.9
5 | FC1(F)Oc2ccc(Nc3ccc4c(Cl)ccc(Cl)c4n3)cc2O1 [Compound 25, 5,8-Dichloro-N-(2,2-difluorobenzo[d][1,3]dioxol-5-yl)quinolin-2-amine] | 6.7
6 | COc1ccc(Cl)c2nc(Nc3ccc4c(c3)OC(F)(F)O4)ccc12 [Compound 24, 8-Chloro-N-(2,2-difluorobenzo[d][1,3]dioxol-5-yl)-5-methoxyquinolin-2-amine] | 3
7 | FC1(F)Oc2ccc(Nc3ccc4c5c(cc(Cl)c4n3)CCC5)cc2O1 [Compound 14, 5-Chloro-N-(2,2-difluorobenzo[d][1,3]dioxol-5-yl)-8,9-dihydro-7H-cyclopenta[f]quinolin-3-amine] | 1.5
8 | COc1ccc2ccc(Nc3ccc4c(c3)OC(F)(F)O4)nc2c1Cl [Compound 16, 8-Chloro-N-(2,2-difluorobenzo[d][1,3]dioxol-5-yl)-7-methoxyquinolin-2-amine] | 3.9
9 | Cc1cc(Cl)c2nc(Nc3ccc4c(c3)OC(F)(F)O4)ccc2c1 [Compound 18, 8-Chloro-N-(2,2-difluorobenzo[d][1,3]dioxol-5-yl)-6-methylquinolin-2-amine] | 2.7
10 | O=C(O)[C@H]1O[C@@H](N(c2ccc3c(c2)OCCO3)c2ccc3cccc(Cl)c3n2)[C@H](O)[C@@H](O)[C@@H]1O [Compound 22, (2S,3S,4S,5R,6R)-6-((8-Chloroquinolin-2-yl)(2,3-dihydrobenzo[b][1,4]dioxin-6-yl)amino)-3,4,5-trihydroxytetrahydro-2H-pyran-2-carboxylic acid] | 1.7
11 | Clc1cccc2ccc(Nc3ccc4c(c3)CCC4)nc12 [Compound 4, 8-Chloro-N-(2,3-dihydro-1H-inden-5-yl)quinolin-2-amine] | 5.4
12 | [2H]C1([2H])Oc2ccc(Nc3ccc4cccc(Cl)c4n3)cc2O1 [Compound 11, N-(Benzo[d][1,3]dioxol-5-yl-2,2-d2)-8-chloroquinolin-2-amine] | 2.4
13 | FC1(F)Oc2ccc(Nc3ccc4cccc(Cl)c4n3)cc2OC1(F)F [Compound 8, 8-Chloro-N-(2,2,3,3-tetrafluoro-2,3-dihydrobenzo[b][1,4]dioxin-6-yl)quinolin-2-amine] | 5.4
14 | FC1(F)Oc2ccc(Nc3ccc4cc(Cl)cc(Cl)c4n3)cc2O1 [Compound 20, 6,8-Dichloro-N-(2,2-difluorobenzo[d][1,3]dioxol-5-yl)quinolin-2-amine] | 5
15 | N#Cc1cc(Cl)c2nc(Nc3ccc4c(c3)OC(F)(F)O4)ccc2c1 [Compound 26, 8-Chloro-2-((2,2-difluorobenzo[d][1,3]dioxol-5-yl)amino)quinoline-6-carbonitrile] | 2.4
16 | Clc1cccc2ccc(Nc3cnc4c(c3)OCO4)nc12 [Compound 9, N-(8-Chloroquinolin-2-yl)-[1,3]dioxolo[4,5-b]pyridin-6-amine] | 2.4
17 | CC1(C)Cc2cc(Nc3ccc4cccc(Cl)c4n3)ccc2O1 [Compound 13, 8-Chloro-N-(2,2-dimethyl-2,3-dihydrobenzofuran-5-yl)quinolin-2-amine] | 2.8
18 | CC1(C)Oc2ccc(Nc3ccc4cccc(Cl)c4n3)cc2O1 [Compound 12, 8-Chloro-N-(2,2-dimethylbenzo[d][1,3]dioxol-5-yl)quinolin-2-amine] | 1.8
19 | Clc1cccc2ccc(Nc3ccc4c(c3)CCCC4)nc12 [Compound 7, 8-Chloro-N-(5,6,7,8-tetrahydronaphthalen-2-yl)quinolin-2-amine] | 5.2
20 | Clc1cccc2ccc(Nc3ccc4c(c3)OCCO4)nc12 [Compound 6, 8-Chloro-N-(2,3-dihydrobenzo[b][1,4]dioxin-6-yl)quinolin-2-amine] | 2.7
21 | Clc1cccc2ccc(Nc3ccc4c(c3)OCO4)nc12 [Compound 10, N-(Benzo[d][1,3]dioxol-5-yl)-8-chloroquinolin-2-amine] | 2.1
22 | CC(=O)N1CCc2cc(Nc3ccc4cccc(Cl)c4n3)ccc21 [Compound 5, 1-(5-((8-Chloroquinolin-2-yl)amino)indolin-1-yl)ethan-1-one] | 1.4
23 | Cc1ccc2ccc(Nc3ccc4c(c3)OC(F)(F)O4)nc2c1Cl [Compound 15, 8-Chloro-N-(2,2-difluorobenzo[d][1,3]dioxol-5-yl)-7-methylquinolin-2-amine] | 5.7
